According to article PMC2580772, “The dual transcriptional regulator CysR in Corynebacterium glutamicum ATCC 13032 controls a subset of genes of the McbR regulon in response to the availability of sulphide acceptor molecules” (BMC Genomics, 2008):

Target: T1, CysR (Corynebacterium glutamicum, UniProt Q8NU28)
T1 construct: gene Cgl0121; expressed in E. coli ER2566 from pTYB1 (pCR050)
T1 sequence (Q8NU28 1-381): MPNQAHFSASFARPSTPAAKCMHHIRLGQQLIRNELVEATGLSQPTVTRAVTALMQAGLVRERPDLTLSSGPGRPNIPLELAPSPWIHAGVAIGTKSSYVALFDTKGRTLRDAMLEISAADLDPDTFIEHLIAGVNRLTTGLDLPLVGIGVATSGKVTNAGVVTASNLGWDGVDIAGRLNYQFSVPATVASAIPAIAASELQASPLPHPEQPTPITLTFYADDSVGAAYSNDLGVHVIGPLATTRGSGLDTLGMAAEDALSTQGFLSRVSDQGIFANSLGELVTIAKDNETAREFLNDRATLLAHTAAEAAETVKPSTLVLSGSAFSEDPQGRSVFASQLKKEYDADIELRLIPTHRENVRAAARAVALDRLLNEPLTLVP
Test: EMSA, effector-dependent DNA binding
Details: 10 mM effector; Cy3-labelled 523 bp cysI-fpr2 DNA; 1,000 times molar excess of protein; pH 7.5; room temperature; co-activator

Compound | EMSA, effector-dependent DNA binding
CC(=O)OCC[C@H](N)C(=O)O [OAH, O-acetyl-L-homoserine] | CysR can only bind if either OAS or OAH is added to the assay
CC(=O)OC[C@H](N)C(=O)O [OAS, O-acetyl-L-serine] | CysR can only bind if either OAS or OAH is added to the assay
